The results in this text go back to the NIST ThermoML archive (doi:10.1016/j.fluid.2009.12.009).

The nature of the data set: xn = mol fraction of the nth substance listed. The following applies: 298.15 K, 101 kPa, Liquid, holographic laser-interferometry using flow junction cell.

Take `CC(C)=O` [acetone] + O: the binary diffusion coefficient turned out to be 1.25e-09 m2/s (x1 = 0.004); 8e-10 m2/s (x1 = 0.1); 6.3e-10 m2/s (x1 = 0.3); 8.3e-10 m2/s (x1 = 0.5); 1.63e-09 m2/s (x1 = 0.7); 3.44e-09 m2/s (x1 = 0.9). Also, the binary diffusion coefficient (x1 = 0.975) turned out to be 4.62e-09 m2/s.

Consider `CC(C)=O` [acetone] + CCCO, for which the binary diffusion coefficient (x1 = 0.015) was determined as 1.14e-09 m2/s; the binary diffusion coefficient (x1 = 0.1) came out at 1.22e-09 m2/s; the binary diffusion coefficient (x1 = 0.2) came to 1.33e-09 m2/s; the binary diffusion coefficient (x1 = 0.3) is 1.4e-09 m2/s; the binary diffusion coefficient (x1 = 0.4) came out at 1.49e-09 m2/s; the binary diffusion coefficient (x1 = 0.5) came out at 1.64e-09 m2/s. Besides, the binary diffusion coefficient turned out to be 1.74e-09 m2/s (x1 = 0.6); 1.98e-09 m2/s (x1 = 0.7); 2.4e-09 m2/s (x1 = 0.8); 2.67e-09 m2/s (x1 = 0.9); 3.12e-09 m2/s (x1 = 0.985).

Turning to `CCCO` [propan-1-ol] + O, the binary diffusion coefficient is, setting by setting: (x1 = 0.002) 1.04e-09 m2/s; (x1 = 0.05) 5.2e-10 m2/s; (x1 = 0.1) 1.7e-10 m2/s; (x1 = 0.2) 1e-10 m2/s; (x1 = 0.4) 1.9e-10 m2/s; (x1 = 0.6) 3.3e-10 m2/s. Also, the binary diffusion coefficient is 5e-10 m2/s (x1 = 0.8) and 5.3e-10 m2/s (x1 = 0.9).

As for `CCCCCl` [1-chlorobutane] + CCCO, the binary diffusion coefficient reads like this: (x1 = 0.013) 1.2e-09 m2/s; (x1 = 0.1) 1.18e-09 m2/s; (x1 = 0.3) 1.13e-09 m2/s; (x1 = 0.5) 1.09e-09 m2/s; (x1 = 0.7) 1.14e-09 m2/s; (x1 = 0.9) 1.45e-09 m2/s. Further, where the note is “x1 = 0.97”, the binary diffusion coefficient came out at 2.51e-09 m2/s.

For the compound `CC(C)=O` [acetone] + CCCCO, the binary diffusion coefficient came to 9.5e-10 m2/s (x1 = 0.0125); 1e-09 m2/s (x1 = 0.1); 1.07e-09 m2/s (x1 = 0.2); 1.13e-09 m2/s (x1 = 0.3); 1.29e-09 m2/s (x1 = 0.4); 1.38e-09 m2/s (x1 = 0.5). The binary diffusion coefficient came to 1.49e-09 m2/s (x1 = 0.6); 1.72e-09 m2/s (x1 = 0.7); 1.85e-09 m2/s (x1 = 0.8); 2.43e-09 m2/s (x1 = 0.9); 2.75e-09 m2/s (x1 = 0.9915); 2.73e-09 m2/s (x1 = 0.9925).
